Measurements as given in US7655651B2, “Amide derivatives of 3-phenyl-dihydropyrimido[4,5-d]pyrimidinones, their manufacture and use as pharmaceutical agents” (Hoffmann-La Roche Inc., priority 2004, dated 2010).

Molecular target: T1, Src (p60^c-src, partially purified) (Homo sapiens, UniProt P12931)
T1 construct: purchased UBI, Upstate Biotech, Inc
Experiment: SRC-Inhibitor-Assay (time-resolved fluorescence kinase assay)
Format: biochemical
Conditions: ATP 5 μM; peptide 10 μM; enzyme 2.5 U/ml; enzyme pre-incubated with inhibitor 15 min at 15° C.
Method: The activity of the compounds according to this invention as inhibitors for the src-family tyrosine kinases was shown by using the following assay.
SRC-Inhibitor-Assay Parameters:
• whereby both peptides were synthesized by an optimized solid phase peptide synthesis protocol (Merrifield, Fed. Proc. Fed. Amer. Soc. Exp. Biol. 21 (1962) 412) on a Zinsser SMP350 peptide synthesizer. Shortly, the peptide was assembled on […] (22.8 μmol scale) of a Rink-Linker modified polystyrene solid phase by repeatedly conjugating an twenty fold excess of amino acids each protected by temporary piperidine labile Fmoc- and permanent acid labile tert-Bu-, BOC— and O-tert-Bu-groups depending on the side chain function. The substrate sequence AEEEIYGEFEAKKKK was N-terminal additionally mounted with the spacer amino acids Aminocaprylic acid and Glycin. After cleavage of the N-terminal temporary protecting group the still attached and protected peptide was labeled with a 1.5 fold amount of LightCycler-Red 640-N-hydroxy succinimide ester (purchased from Roche Diagnostics GmbH) and triethylamine. After 3 hrs. the resin washed with Dimethylformamide and Isopropanol until the eluates of the blue resin got colourless. […] The substrate was finally isolated by a preparative reverse phase HPLC purification. The purification yielded 12.2 mg RP-HPLC single peak pure blue material (lyophilisate). The identity was proven by MALDI mass spectroscopy [2720.0]. • Enzymes: Upstate Src (p60^c-src, partially purified) were purchased from UBI, Upstate Biotech, Inc.
Time-resolved Fluorescence Assay: Reader: Perkin Elmer, Wallac Viktor 1420-040 multilabel counter; Liquid handling system: Beckman Coulter, Biomek 2000.
ATP, Tween™ 20, 4-(2-hydroxyethyl)-1-piperazineethanesulfonic acid (HEPES) were purchased from Roche Molecular Biochemicals, MgCl2 and MnCl2 were purchased from Merck Eurolab, Tris(2-carboxyethyl)phosphine hydrochloride (TCEP) was purchased from Pierce, 384 Well low volume fluorescence plates was purchased from Falcon.
At first the enzyme is pre-incubated for 15 min. at 15° C. in aqueous solution with corresponding amounts of inhibitors according to this invention. Then the phosphorylation reaction is started by adding a reaction mixture, containing ATP, Peptide and PT66, and subsequent shaking. The proceeding of this reaction is immediately monitored using time resolved fluorescence spectroscopy in a suitable well plate reader.
The IC50-values can be obtained from the reaction rates by using a non-linear curve fit (XLfit software (ID Business Solution Ltd., Guilford, Surrey, UK))

T1 sequence (P12931 whole entry): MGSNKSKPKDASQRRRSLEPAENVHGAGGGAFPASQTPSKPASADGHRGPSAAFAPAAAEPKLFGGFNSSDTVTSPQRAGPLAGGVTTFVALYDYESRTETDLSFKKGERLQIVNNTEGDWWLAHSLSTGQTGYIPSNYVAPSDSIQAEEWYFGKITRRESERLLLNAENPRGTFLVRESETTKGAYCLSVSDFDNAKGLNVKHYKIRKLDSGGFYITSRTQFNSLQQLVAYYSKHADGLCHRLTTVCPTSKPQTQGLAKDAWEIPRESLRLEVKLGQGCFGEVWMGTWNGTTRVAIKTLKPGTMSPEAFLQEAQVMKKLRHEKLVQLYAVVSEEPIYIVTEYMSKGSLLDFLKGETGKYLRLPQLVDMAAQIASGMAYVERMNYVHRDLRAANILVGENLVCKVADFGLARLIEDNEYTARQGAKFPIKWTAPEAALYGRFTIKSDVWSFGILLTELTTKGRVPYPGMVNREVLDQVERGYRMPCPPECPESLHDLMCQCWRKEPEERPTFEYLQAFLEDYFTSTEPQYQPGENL

| Structure (SMILES) | IC50 |
| --- | --- |
| CCN(CC)CCOc1ccc(Nc2ncc3c(n2)N(C)C(=O)N(c2cc(NC(=O)C4CCCCCC4)ccc2Cl)C3)cc1 [Example 2-2, Cycloheptanecarboxylic acid (4-chloro-3-{7-[4-(2-diethylamino-ethoxy)-phenylamino]-1-methyl-2-oxo-1,4-dihydro-2H-pyrimido[4,5-d]pyrimidin-3-yl}-phenyl)-amide; compound with acetic acid] | 15 to 50 nM |
| CCN(CC)CCOc1ccc(Nc2ncc3c(n2)N(C)C(=O)N(c2cc(NC(=O)c4ccc(OC)cc4)ccc2Cl)C3)cc1 [Example 2-7, N-(4-Chloro-3-{7-[4-(2-diethylamino-ethoxy)-phenylamino]-1-methyl-2-oxo-1,4-dihydro-2H-pyrimido[4,5-d]pyrimidin-3-yl}-phenyl)-4-methoxy-benzamide] | 1 to 15 nM |
| CCN(CC)CCOc1ccc(Nc2ncc3c(n2)N(C)C(=O)N(c2cc(NC(=O)CCc4ccc(O)cc4)ccc2Cl)C3)cc1 [Example 2-12, N-(4-Chloro-3-{7-[4-(2-diethylamino-ethoxy)-phenylamino]-1-methyl-2-oxo-1,4-dihydro-2H-pyrimido[4,5-d]pyrimidin-3-yl}-phenyl)-3-(4-hydroxy-phenyl)-propionamide; compound with acetic acid] | 1 to 15 nM |
| CCN(CC)CCOc1ccc(Nc2ncc3c(n2)N(C)C(=O)N(c2cc(NC(=O)CCCc4ccccc4)ccc2Cl)C3)cc1 [Example 2-15, N-(4-Chloro-3-{7-[4-(2-diethylamino-ethoxy)-phenylamino]-1-methyl-2-oxo-1,4-dihydro-2H-pyrimido[4,5-d]pyrimidin-3-yl}-phenyl)-4-phenyl-butyramide] | 15 to 50 nM |
| CCN(CC)CCOc1ccc(Nc2ncc3c(n2)N(C)C(=O)N(c2cc(NC(=O)C=Cc4ccccc4)ccc2Cl)C3)cc1 [Example 2-16, N-(4-Chloro-3-{7-[4-(2-diethylamino-ethoxy)-phenylamino]-1-methyl-2-oxo-1,4-dihydro-2H-pyrimido[4,5-d]pyrimidin-3-yl}-phenyl)-3-phenyl-acrylamide] | 1 to 15 nM |
| CCN(CC)CCOc1ccc(Nc2ncc3c(n2)N(C)C(=O)N(c2cc(NC(=O)Cc4cccnc4)ccc2Cl)C3)cc1 [Example 2-21, N-(4-Chloro-3-{7-[4-(2-diethylamino-ethoxy)-phenylamino]-1-methyl-2-oxo-1,4-dihydro-2H-pyrimido[4,5-d]pyrimidin-3-yl}-phenyl)-2-pyridin-3-yl-acetamide] | 15 to 50 nM |
| CCN(CC)CCOc1ccc(Nc2ncc3c(n2)N(C)C(=O)N(c2cc(NC(=O)CCc4cccnc4)ccc2Cl)C3)cc1 [Example 2-23, N-(4-Chloro-3-{7-[4-(2-diethylamino-ethoxy)-phenylamino]-1-methyl-2-oxo-1,4-dihydro-2H-pyrimido[4,5-d]pyrimidin-3-yl}-phenyl)-3-pyridin-3-yl-propionamide; compound with acetic acid] | 1 to 15 nM |

The next lines start with the values.

| IC50 | Structure (SMILES) |
| --- | --- |
| 1 to 15 nM | CCN(CC)CCOc1ccc(Nc2ncc3c(n2)N(C)C(=O)N(c2cc(NC(=O)c4ccc(-c5ccccc5)cc4)ccc2Cl)C3)cc1 [Example 1, Biphenyl-4-carboxylic acid (4-chloro-3-{7-[4-(2-diethylamino-ethoxy)-phenylamino]-1-methyl-2-oxo-1,4-dihydro-2H-pyrimido[4,5-d]pyrimidin-3-yl}-phenyl)-amide] |
| 2.4 nM | CCN(CC)CCOc1ccc(Nc2ncc3c(n2)N(C)C(=O)N(c2cc(NC(=O)c4ccccc4)ccc2Cl)C3)cc1 [Example 2-6, N-(4-Chloro-3-{7-[4-(2-diethylamino-ethoxy)-phenylamino]-1-methyl-2-oxo-1,4-dihydro-2H-pyrimido[4,5-d]pyrimidin-3-yl}-phenyl)-benzamide] |
| 1 nM | CCN(CC)CCOc1ccc(Nc2ncc3c(n2)N(C)C(=O)N(c2cc(NC(=O)c4ccc(C#N)cc4)ccc2Cl)C3)cc1 [Example 2-8, N-(4-Chloro-3-{7-[4-(2-diethylamino-ethoxy)-phenylamino]-1-methyl-2-oxo-1,4-dihydro-2H-pyrimido[4,5-d]pyrimidin-3-yl}-phenyl)-4-cyano-benzamide] |
